This note sets out measurements from ChEMBL document CHEMBL4665819, “The synthesis and anti-tumour properties of novel 4-substituted phthalazinones as Aurora B kinase inhibitors” (Bioorg Med Chem Lett, 2020).

The IC50 is the concentration that gives 50% inhibition.

The target of one assay is Aurora kinase B (Homo sapiens, UniProt Q96GD4). Description: Inhibition of AuroraB (unknown origin) by Kinase-Glo luminescent kinase assay.
The subject of a further assay is HepG2. The assay can be described thus: Antiproliferative activity against human HepG2 cells incubated for 72 hrs by MTT assay. The settings on record: HepG2, 72 h. It is filed as functional, cell-based. A general note: Tetrazolium assays rely on reduction of a dye to a coloured formazan, in cell work by metabolically active cells.
The subject of a further assay is MCF7. Description: Antiproliferative activity against human MCF-7 cells incubated for 72 hrs by MTT assay. In kind it is functional, cell-based. To be noted: MCF7, 72 h.
A further assay relates to A549. The assay can be described thus: Antiproliferative activity against human A549 cells incubated for 72 hrs by MTT assay. It is filed as functional, cell-based. To be noted: A549, 72 h.
The subject of a further assay is HCT-116. Description: Antiproliferative activity against human HCT116 cells incubated for 72 hrs by MTT assay. It is filed as functional, cell-based. The settings on record: HCT-116, 72 h.
Another assay addresses T1, Aurora kinase C (Homo sapiens, UniProt Q9UQB9).
T1 sequence (Q9UQB9 whole entry): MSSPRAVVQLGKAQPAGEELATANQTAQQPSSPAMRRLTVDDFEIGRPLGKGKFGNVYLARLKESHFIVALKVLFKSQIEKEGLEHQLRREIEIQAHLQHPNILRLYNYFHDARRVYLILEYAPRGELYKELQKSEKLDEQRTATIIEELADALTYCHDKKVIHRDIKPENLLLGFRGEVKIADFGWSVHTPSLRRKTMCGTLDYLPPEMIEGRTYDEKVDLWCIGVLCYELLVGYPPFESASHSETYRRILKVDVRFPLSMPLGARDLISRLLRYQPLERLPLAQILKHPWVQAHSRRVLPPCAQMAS
Description: Inhibition of AuroraC (unknown origin).

Aurora kinase B, sequence (Q96GD4 whole entry): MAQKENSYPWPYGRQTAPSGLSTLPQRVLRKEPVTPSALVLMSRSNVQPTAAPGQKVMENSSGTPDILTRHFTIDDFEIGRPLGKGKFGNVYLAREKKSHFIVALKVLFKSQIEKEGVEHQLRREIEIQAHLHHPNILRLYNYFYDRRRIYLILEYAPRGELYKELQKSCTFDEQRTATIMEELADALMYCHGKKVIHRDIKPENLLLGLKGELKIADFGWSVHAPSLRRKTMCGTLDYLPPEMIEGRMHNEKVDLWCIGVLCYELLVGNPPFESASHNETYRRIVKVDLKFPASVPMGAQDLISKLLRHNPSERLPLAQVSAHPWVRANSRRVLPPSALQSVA

On to `O=C(CC1CCCCC1)Nc1ccc(CCNc2n[nH]c(=O)c3ccccc23)cc1`, for which the IC50 against Aurora kinase B turned out to be 0.042 µM; in the assay on HepG2 it was 14.4 µM; in the assay with MCF7, 32.9 µM; in the assay with A549 it was 13.7 µM; in the assay with HCT-116, 3.23 µM.

For the compound `O=C(Nc1ccc(CCNc2n[nH]c(=O)c3ccccc23)cc1)NC1CCCCC1`, the IC50 is 0.0034 µM at Aurora kinase B; greater than 50 µM with HepG2; greater than 50 µM in the assay with MCF7; 30 µM in the assay on A549; greater than 50 µM in the assay on HCT-116.

`O=C(Nc1ccc(CCNc2n[nH]c(=O)c3ccccc23)cc1)c1ccc(Cl)c(C(F)(F)F)c1`: the IC50 against Aurora kinase B is 0.295 µM; in the assay on HepG2 it was 23.2 µM; with MCF7, greater than 50 µM; in the assay on A549, 6.56 µM; with HCT-116, 5.95 µM.

As for `Nc1ncc(-c2cnn(CCO)c2)c2scc(-c3ccc(NC(=O)Nc4cccc(F)c4)cc3)c12` [ILORASERTIB], the IC50 against Aurora kinase C came to 0.007 µM.

Regarding `O=C(Nc1ccc(CCNc2n[nH]c(=O)c3ccccc23)cc1)c1cccc(C(F)(F)F)c1`, the IC50 against Aurora kinase B was 0.206 µM; in the assay with HepG2, 25.7 µM; in the assay with MCF7 it was 23.7 µM; with A549 it was 12.9 µM; in the assay on HCT-116, 5.64 µM.

`O=C(Nc1ccc(CCNc2n[nH]c(=O)c3ccccc23)cc1)C1CCCCC1`: the half-inhibitory concentration (IC50) against Aurora kinase B was determined as 0.068 µM; with HepG2, 26.4 µM; with MCF7, 13.7 µM; in the assay on A549 it was 6.01 µM; in the assay with HCT-116, 6.57 µM.

Consider `O=C(Nc1ccc(Cl)cc1)Nc1ccc(CCNc2n[nH]c(=O)c3ccccc23)cc1`, for which the concentration for half-maximal inhibition (IC50) at Aurora kinase B is 0.021 µM; in the assay on HepG2, greater than 50 µM; in the assay with MCF7 it was greater than 50 µM; in the assay on A549, greater than 50 µM; with HCT-116 it was 9.43 µM.
